The assay is described as follows: Inhibition of dyn2 in human U2OS cells assessed as clathrin-mediated endocytosis of Tfn after 30 mins.

In general, IC50 refers to the midpoint of a concentration-inhibition curve.

In the case of `CCCCCCCCNC(=O)/C(C#N)=C/c1cn(CCCN(C)C)c2ccccc12` [2-Cyano-N-octyl-3-(1-(3-dimethylaminopropyl)-1H-indol-3-yl)-acrylamide], the IC50 worked out at 5 µM.
With `CCCCCCCCNCc1cn(CCCN(C)C)c2ccccc12`, the IC50 was determined as 3.5 µM.

For the origin of these results see BindingDB's records for doi:10.1021/jm300844m (The University of Newcastle, 2013).
